Laboratory results published in patent US6268391A, “Benzylidene-1,3-dihydro-indol-2-one derivatives a receptor tyrosine kinase inhibitors, particularly of Raf kinases” (Glaxo Wellcome Inc., priority 1997, dated 2001).

Each compound was assayed against T1, Human cRaf1 (Homo sapiens, UniProt P04049) (assay: Raf kinase assay (cRaf1 assay / Raf/MEK cascade assay)). Conditions: not given.
T1 construct: poly-histidine (C); made in house
Format: biochemical
Protocol: The potency of cRaf1 dependent kinase activity was measured using one of two assay formats. The first measured cRaf1 catalyzed phosphorylation of MEK1, the natural substrate for cRaf1. This assay is referred to as the cRaf1 assay. The second measured the ability of cRaf1 to phosphorylate and activate MEK1. This assay is referred to as the Raf/MEK cascade assay.
Human cRaf1 tagged with poly histidine at the carboxyterminus was expressed in a baculovirus expression system and purfied by Ni chelate affinity chromatography. Human MEK1 was expressed in E. coli as a fusion protein with Glutathione-S-transferase, and purified by glutathione sepharose affinity chromatography. […] Reactions contained cRaf1 (20 nM), MEK1 (100-500 nM), [γ-^32 P]ATP ([…]), Mg^2+ (10 mM), MOPS (50 mM, pH 7.5). Reactions were incubated at room temperature for periods of time ranging from 20-120 minutes. Inhibitors were diluted in 100% DMSO prior to addition to the assay. Reactions were terminated with an equal volume of 0.5% phosphoric acid. MEK1 phosphorylation was detected by scintillation counting following collection of protein onto phosphocellulose filters.
Human cRaf1 and MEK1 were purified as described above. A peptide substrate phosphorylated by MEK1 was used as the final phosphoryl group acceptor. […] Assay conditions were the same as those described above except for the following modifications. Reactions contained cRaf1 (1-5 nM), MEK1 (60 nM), and peptide ([…]).

T1 sequence (P04049 whole entry): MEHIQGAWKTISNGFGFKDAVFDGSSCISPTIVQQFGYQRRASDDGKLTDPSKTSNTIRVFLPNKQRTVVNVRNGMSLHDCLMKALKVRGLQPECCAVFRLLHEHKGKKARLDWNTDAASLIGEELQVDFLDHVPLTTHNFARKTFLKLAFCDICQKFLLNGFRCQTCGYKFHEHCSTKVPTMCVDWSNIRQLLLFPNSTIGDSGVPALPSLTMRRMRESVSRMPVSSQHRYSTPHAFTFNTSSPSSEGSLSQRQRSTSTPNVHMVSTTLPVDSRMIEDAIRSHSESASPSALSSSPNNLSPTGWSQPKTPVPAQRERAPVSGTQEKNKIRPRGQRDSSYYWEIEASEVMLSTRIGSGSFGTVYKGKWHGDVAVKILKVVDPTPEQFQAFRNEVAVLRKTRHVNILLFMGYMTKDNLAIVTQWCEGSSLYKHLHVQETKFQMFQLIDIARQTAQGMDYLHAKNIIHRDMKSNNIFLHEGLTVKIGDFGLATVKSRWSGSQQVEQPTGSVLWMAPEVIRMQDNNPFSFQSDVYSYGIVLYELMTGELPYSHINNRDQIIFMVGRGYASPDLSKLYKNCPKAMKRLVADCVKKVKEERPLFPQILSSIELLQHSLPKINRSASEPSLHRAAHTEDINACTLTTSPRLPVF

In the case of `CN1CCN(C(=O)Oc2c(Br)cc(C=C3C(=O)Nc4ccc(I)cc43)cc2Br)CC1` [Example 153, 2,6-Dibromo-4-[(5-iodo-2-oxo-1,2-dihydro-3H-indol-3-ylidene)methyl]phenyl 4-methyltetrahydro-1(2H)-pyrazinecarboxylate], the IC50 is reported as 10 to 100 µM.

Same assay, conditions: Table 3; read-out: Raf Kinase activity

`O=C1Nc2ccc(C(=O)NCc3ccncc3)cc2C1=Cc1cc(Br)c(O)c(Br)c1` [Example 181, 3-[(3,5-dibromo-4-hydroxyphenyl)methylidene]-2-oxo-N-(4-pyridinylmethyl)-1,2-dihydro-3H-indole-5-carboxamide] and `CN(C)CCNC(=O)c1ccc2c(c1)C(=Cc1cc(Br)c(O)c(Br)c1)C(=O)N2` [Example 168, 3-[(3,5-Dibromo-4-hydroxyphenyl)methylidene]-N-(2-(dimethylamino)ethyl]-2-oxo-5-indolinecarboxamide] cannot be ordered by IC50: less than 1 µM for the first, less than 1 µM for the second.

`O=C1Nc2ccc([N+](=O)[O-])cc2C1=Cc1cc(O)c(O)c(Cl)c1` [Example 105, 3-(3-Chloro-4,5-dihydroxy-benzylidene)-5-nitro-1,3-dihydro-indol-2-one] and `O=C1Nc2ccc(Cl)cc2C1=Cc1cc(Cl)c(O)c(Cl)c1` [Example 39, 5-Chloro-3-(3,5-dichloro-4-hydroxy-benzylidene)-1,3-dihydro-indol-2-one] cannot be ordered by IC50: less than 1 µM for the first, less than 1 µM for the second.

`O=C1Nc2c(I)cc(C(=O)CCl)cc2C1=Cc1cc(Br)c(O)c(Br)c1` [Example 86, 5-(2-Chloro-acetyl)-3-(3,5-dibromo-4-hydroxy-benzylidene)-7-iodo-1,3-dihydro-indol-2-one] and `COC(=O)c1ccc2c(c1)C(=Cc1cc(Br)c(O)c(Br)c1)C(=O)N2` [Example 20, 3-(3,5-Dibromo-4-hydroxy-benzylidene)-2-oxo-2,3-dihydro-1H-indol-5-carboxylic acid methyl ester] cannot be ordered by IC50: less than 1 µM for the first, less than 1 µM for the second.

`Nc1nc2ccc3c(c2s1)C(=Cc1cc(Br)c(O)c(Br)c1)C(=O)N3` [Example 135, 2-Amino-8-(3,5-dibromo-4-hydroxy-benzylidene)-6,8-dihydro-1-thia-3,6-diaza-as-indacen-7-one] and `CCc1ccc2c(c1)C(=Cc1cc(Br)c(O)c(Br)c1)C(=O)N2` [Example 120, 3-(3,5-Dibromo-4-hydroxy-benzylidine)-5-ethyl-1,3-dihydro-indol-2-one] cannot be ordered by IC50: less than 1 µM for the first, less than 1 µM for the second.

`O=C1Nc2ccc(S(=O)(=O)N3CCCC3)cc2C1=Cc1cc(Br)c(O)c(Br)c1` [Example 35, 3-(3,5-Dibromo-4-hydroxy-benzylidene)-5-(pyrrolidine-1-sulfonyl)-1,3-dihydro-indol-2-one] and `COc1cc(C=C2C(=O)Nc3ccc(Br)cc32)cc(Br)c1O` [Example 57, 5-Bromo-3-(3-bromo-4-hydroxy-5-methoxy-benzylidene)-1,3-dihydro-indol-2-one] cannot be ordered by IC50: less than 1 µM for the first, less than 1 µM for the second.

`COc1cc(C=C2C(=O)Nc3ccc(I)cc32)cc(Br)c1O` [Example 43, 3-(3-Bromo-4-hydroxy-5-methoxy-benzylidene)-5-iodo-1,3-dihydro-indol-2-one] and `COc1cc(C=C2C(=O)Nc3cc(F)c(F)cc32)cc(Br)c1O` [Example 58, 3-(3-Bromo-4-hydroxy-5-methoxy-benzylidene)-5,6-difluoro-1,3-dihydro-indol-2-one] cannot be ordered by IC50: less than 1 µM for the first, less than 1 µM for the second.

`CC(C)(C)C(=O)OCOc1c(Br)cc(C=C2C(=O)Nc3ccc(I)cc32)cc1Br` [Example 80, 2,2-Dimethyl-propionic acid,2,6-dibromo-4-(5-iodo-2-oxo-1,3-dihydro-indol-3-ylidenemethyl)-phenoxymethyl ester] and `CC(C)COC(=O)Oc1c(Br)cc(C=C2C(=O)Nc3ccc(Cl)cc32)cc1Br` [Example 148, 2,6-Dibromo-4-[(5-chloro-2-oxo-1,2-dihydro-3H-indol-3-ylidene)methyl]phenyl isobutyl carbonate] fall in the same range of IC50: 10 to 100 µM for the first, 10 to 100 µM for the second.

`COc1cc(C=C2C(=O)Nc3ccc(Cl)cc32)cc(Cl)c1O` [Example 54, 5-Chloro-3-(3-chloro-4-hydroxy-5-methoxy-benzylidene)-1,3-dihydro-indol-2-one] gave an IC50 of less than 1 µM.
